These results are taken from publication PMC9578396, “Intrinsic Antibacterial Activity of Xeruborbactam In Vitro: Assessing Spectrum and Mode of Action” (Antimicrobial Agents and Chemotherapy, 2022).

Converted amounts (≈) assume the structure as drawn. Read-outs that look alike come from different tables or passages of the source.

The target in one test is PBP3 (Klebsiella pneumoniae, UniProt A0A0H3GN85). Also on record: method as in PMID 29712652. The following applies: read-out: IC50, PBP3; value in parentheses; K. pneumoniae ATCC 43816; cited from earlier work.
Sequence of PBP3 (A0A0H3GN85 entry or part of it): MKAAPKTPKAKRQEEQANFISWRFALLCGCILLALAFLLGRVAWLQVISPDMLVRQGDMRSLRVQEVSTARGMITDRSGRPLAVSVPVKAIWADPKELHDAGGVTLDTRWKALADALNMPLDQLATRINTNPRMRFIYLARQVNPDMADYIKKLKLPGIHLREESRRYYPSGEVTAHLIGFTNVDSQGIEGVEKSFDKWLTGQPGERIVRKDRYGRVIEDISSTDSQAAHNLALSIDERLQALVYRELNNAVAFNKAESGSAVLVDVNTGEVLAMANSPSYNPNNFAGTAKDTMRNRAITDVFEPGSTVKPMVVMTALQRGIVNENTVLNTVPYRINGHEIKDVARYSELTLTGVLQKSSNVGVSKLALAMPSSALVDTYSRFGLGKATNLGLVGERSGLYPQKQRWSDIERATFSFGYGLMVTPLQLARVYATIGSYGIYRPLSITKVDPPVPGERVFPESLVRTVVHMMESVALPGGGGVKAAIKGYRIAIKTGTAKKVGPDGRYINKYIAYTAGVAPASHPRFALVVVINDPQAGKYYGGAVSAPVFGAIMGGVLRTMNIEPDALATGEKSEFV
The target in another test is T1, PBP1a (Escherichia coli, UniProt P02918).
T1 construct: Five microliters of total bacterial membrane preparation was mixed with 5 μL of a test compound; endogenous in cells; host or cells: Escherichia coli ECM5497 (MG1655), total membrane preparation
T1 sequence (P02918 whole entry): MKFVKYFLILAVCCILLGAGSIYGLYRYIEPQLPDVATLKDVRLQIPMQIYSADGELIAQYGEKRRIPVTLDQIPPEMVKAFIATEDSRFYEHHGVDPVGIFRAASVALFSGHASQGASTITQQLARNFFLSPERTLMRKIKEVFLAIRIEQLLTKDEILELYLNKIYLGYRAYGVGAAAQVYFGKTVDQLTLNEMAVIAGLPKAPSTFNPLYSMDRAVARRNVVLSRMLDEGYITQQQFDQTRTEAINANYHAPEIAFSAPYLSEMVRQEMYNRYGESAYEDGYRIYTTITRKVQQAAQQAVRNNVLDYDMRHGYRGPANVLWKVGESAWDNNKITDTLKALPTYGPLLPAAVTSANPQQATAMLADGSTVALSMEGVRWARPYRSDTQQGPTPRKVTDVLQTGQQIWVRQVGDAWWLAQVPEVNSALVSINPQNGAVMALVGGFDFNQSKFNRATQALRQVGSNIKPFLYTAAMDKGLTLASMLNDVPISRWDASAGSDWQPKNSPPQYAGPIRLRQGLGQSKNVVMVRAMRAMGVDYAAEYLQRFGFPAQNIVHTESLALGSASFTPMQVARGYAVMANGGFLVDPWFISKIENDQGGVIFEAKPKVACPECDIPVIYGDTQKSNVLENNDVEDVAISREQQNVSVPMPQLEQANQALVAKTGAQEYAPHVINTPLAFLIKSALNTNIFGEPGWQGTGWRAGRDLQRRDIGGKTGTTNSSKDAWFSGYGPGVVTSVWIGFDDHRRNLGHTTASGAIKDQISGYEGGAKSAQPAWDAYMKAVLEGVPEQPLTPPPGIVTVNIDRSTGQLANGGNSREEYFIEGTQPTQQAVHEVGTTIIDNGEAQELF
Also noted: method as in PMID 18250190. The following applies: read-out: IC50, PBP1a; value in parentheses; E. coli MC1400; cited from earlier work.

The subject of test [1] is K. pneumoniae strain KPM1026a. As to the kind of experiment: Fluorescence microscopy, cellular morphology. It counts as cell-based, Klebsiella pneumoniae. To be noted: treated at 1× and 2× MIC, 1 to 2 h, 30°C. The procedure:
Single colonies of K. pneumoniae strain KPM1026a, A. baumannii strain ATCC 17978, and P. aeruginosa strain PAM1154 were picked from LB agar plates, inoculated in cation-adjusted Mueller-Hinton broth (CA-MHB), and incubated overnight at 30°C with rolling. Overnight cultures were diluted into fresh CA-MHB and incubated at 30°C, with rolling, until they reached an OD600 of ≈0.12 to 0.15 (equivalent to ~2 × 10^8 CFU/mL). Samples were then treated with compounds and incubated at 30°C, with rolling. After 1 or 2 h of treatment, cells were collected and stained with a dye mix containing FM4-64 (1 μg/mL), DAPI (4′,6-diamidino-2-phenylindole) (2 μg/mL), and SYTOX green (0.5 μM) (Molecular Probes, Invitrogen, or Thermo Fisher Scientific). Cells were transferred onto an agarose pad containing 1.2% agarose and 20% LB medium for microscopy. Microscopy was performed as previously described ([34]).

The test system of another test is Proteus mirabilis. Kind of test: Broth microdilution MIC (CLSI), Proteus mirabilis. Type of test: cell-based. To be noted: 23 isolates. From the text: (§1) Bacterial isolates were subjected to broth microdilution susceptibility testing, performed according to Clinical and Laboratory Standards Institute (CLSI) methods ([46]), using panels prepared in-house. Meropenem was purchased from Sandoz, and all other antibiotics were from Sigma-Aldrich. Xeruborbactam was synthesized at Qpex Biopharma, San Diego, CA. Avibactam was purchased from eNovation Chemicals LLC, Bridgewater, NJ, USA; zidebactam was from MedKoo Biosciences, Inc., Morrisville, NC, and nacubactam was from Advanced ChemBlocks, Hayward, CA. Durlobactam was synthesized at Acme Bioscience, Palo Alto, CA, USA.

Test [2] relates to K. pneumoniae strain KPM1026a. The procedure: Beta-lactamase-negative strains of E. coli (strain ECM5497), A. baumannii (strain AB1007), and K. pneumoniae (strain KPM1026a) were used in resistance development studies. […] Colonies were incubated for 24 h at 37°C before the frequency of resistance emergence was calculated as the ratio of the number of CFU grown on the xeruborbactam-containing plate over the number of CFU recorded for xeruborbactam-free plates. Single colonies from xeruborbactam-containing plates were grown twice on a nonselective medium before their antimicrobial-resistance levels were assessed. For K. pneumoniae KPM1026a, several independent cultures were used in resistance studies.

For another test, the system named is Enterobacterales. As to the kind of experiment: Broth microdilution MIC (CLSI), Enterobacterales. Type of test: cell-based.
Excerpt: as §1

Setting [3] is: Enterobacterales, 1,028 isolates.

In the case of `C[C@@H](O)[C@H]1C(=O)N2C(C(=O)O)=C(S[C@@H]3CN[C@H](C(=O)N(C)C)C3)[C@H](C)[C@H]12` [Meropenem], the IC50 – broadly, the midpoint of a concentration-inhibition curve – on PBP3 is 310 nM; at PBP1a, 4400 nM.

As to `O=C(O)c1c(F)ccc2c1OB(O)[C@@H]1C[C@H]21` [Xeruborbactam], the cellular morphology entry in test [1] is “increased cell length relative to that of the untreated controls and bulges that developed at midcell”. Also, the MIC50 against Proteus mirabilis and in the test with Enterobacterales (setting [3]) was 16 µg/mL (≈ 72.1 µM) throughout. In addition, the MIC90 against Proteus mirabilis and against Enterobacterales (setting [3]) was 32 µg/mL (≈ 144 µM) throughout. The entries for the “frequency of resistance (FOR)” value in test [2] (at 2× MIC) and in test [2] (at 4× MIC) were 2 × 10^−8 and < 3 × 10^−9, respectively. In the test on Enterobacterales (setting [3]), this compound came in with an MIC range of 2 to 64 µg/mL. For the same compound, the MIC (commonly the lowest concentration that inhibits growth of the organism) was 16 µg/mL (≈ 72.1 µM) in the test on Enterobacterales (read-out: modal MIC) and 8 to 16 µg/mL (≈ 36 to 72.1 µM) in the test on Enterobacterales (wild-type strains of Escherichia coli or Klebsiella pneumoniae, read-out: antibacterial potency (MIC)).
